Results from US11964935B2, “Gingerol derivative having inhibitory activity against biofilm formation and pharmaceutical composition comprising same as effective ingredient for preventing or treating biofilm-caused infection symptom” (Korea University Research and Business Foundation, Sejong …, priority 2017, dated 2024).
“Also recorded” adds a separate entry of the source.

Experiments:
[1] = molecular target: T1, LasR (Pseudomonas aeruginosa, UniProt P25084); experiment: LasR reporter gene assay (E. coli reporter strain, luminescence, competition with OdDHL); type: cell-based; details: compound 1 μM or 10 μM in the presence of 1 μM OdDHL (compound 1a)
T1 construct: expressed in transfected cells; host or cells: E. coli DH5α (printed DHSα) co-transformed with pJN105L and pSC11
T1 sequence (P25084 whole entry): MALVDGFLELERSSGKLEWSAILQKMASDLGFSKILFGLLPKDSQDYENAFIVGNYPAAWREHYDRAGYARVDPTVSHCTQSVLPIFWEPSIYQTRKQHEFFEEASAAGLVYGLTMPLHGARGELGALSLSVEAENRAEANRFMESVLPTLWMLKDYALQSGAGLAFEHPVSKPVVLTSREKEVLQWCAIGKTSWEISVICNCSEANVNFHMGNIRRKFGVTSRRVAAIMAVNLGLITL
Protocol: This assay was conducted by modifying a previously reported method. E. coli DHSα co-transformed with two plasmids, pJN105L (LasR expression plasmid) and pSC11 (lasI::lacZ fusion plasmid), was used as a bioassay reporter strain. Overnight culture of the reporter strain with 10 μg/mL gentamicin and 50 μg/mL ampicillin was diluted in the Luria-Bertani (LB) medium (1:100). Then, the reporter strain (optical density at 595 nm [OD595] was 0.3) mixed with either a positive control or the synthesized compound was incubated with OdDHL (Sigma-Aldrich, St. Louis, MO., USA) and 0.4% arabinose (Sigma-Aldrich). After incubation at 37° C. for 1.5 h, OD595 was measured on a VICTOR ×5 multimode plate reader (PerkinElmer, Waltham, Mass., USA). The β-galactosidase activity was determined using a Tropix plus kit (Applied Biosystems, USA), and luminescence was measured on the VICTOR ×5 multimode plate reader. RLU ratio was quantified by dividing luminescence with OD595.
LasR-binding affinity of the synthesized gingerols (compounds 4-10) with various alkyl chain lengths was determined by measuring luminescence of an E. coli reporter strain. The reporter strain carried two plasmids, pJN105L (LasR expression plasmid) (Lee, J. H.; Lequette, Y.; Greenberg, E. P. Activity of purified QscR, a Pseudomonas aeruginosa orphan quorum-sensing transcription factor. Mol. Microbiol. 2006, 59, 602609.) and pSC11 (las1::lacZ fusion plasmid) (Chugani, S. A.; Whiteley, M.; Lee, K. M.; D'Argenio, D.; Manoil, C.; Greenberg, E. P. QscR, a modulator of quorum-sensing signal synthesis and virulence in Pseudomonas aeruginosa. Proc. Natl. Acad. Sci. U.S.A. 2001, 98, 27522757.), which enabled assay of competitive binding of OdDHL with each gingerol derivative 4-10. Antagonistic activities of the synthesized compounds at 1 μM or 10 μM were determined by measuring luminescence in the presence of 1 μM OdDHL (compound 1a) and presented as relative luminescence unit (RLU) ratio. Three compounds (compounds 1b, 1c, and 1d) served as positive controls. […] Just as the LasR inhibition, inhibition of biofilm formation also strengthened as the carbon chain was extended at 10 μM ((B) of FIG. 3). However, inhibition of biofilm formation decreased with 9-gingerol (compound 9) and 10-gingerol (compound 10) at 100 μM ((C) of FIG. 3) because of increased bacterial growth inhibition. […] This effect may be due to the fact that compounds 9 and 10 act as a surfactant, which inhibits bacterial growth. Agonistic activities of compounds 4-10 in an E. coli reporter assay system in the absence of OdDHL were next examined.

[2] = test system: P. aeruginosa PA14; experiment: Dynamic biofilm formation assay (drip-flow reactor, CLSM); type: cell-based, Pseudomonas aeruginosa; details: 48 h drip-flow reactor
Protocol: Glass slides were dipped into a Petri dish containing 2 mL of a P. aeruginosa PA14 suspension (OD595=1.0) and 18 mL of the AB medium, followed by incubation at 37° C. for 24 h to let the cells adhere to the slides. The slides were then inserted into a drip-flow reactor (DFR-110, BioSurface, Mont., USA). The AB medium with either a positive control or the synthesized compound (0-10 μM) was fed into the reactor continuously via a peristaltic pump (Masterflex C/L tubing pumps, Cole-Parmer, IL, USA) at 0.3 mL/min After operation of the reactor at 37° C. for 48 h, the cells on the slides were washed two times with PBS. The biofilm cells were stained with fluorescein isothiocyanate-labeled type IV ConA (Sigma-Aldrich) and SYPRO Ruby (Ruby, Invitrogen, Carlsbad, CA, USA) for 15 min, respectively. CLSM images were captured via a 20× objective lens (W N-Achroplan 20×/0.5 W [DIC] M27) with green fluorescence (ConA, excitation wavelength of 490 nm, emission wavelength of 525 nm) and red fluorescence (Ruby, excitation wavelength of 470 nm, emission wavelength of 618 nm) and were analyzed in the Zen 2011 software (Carl Zeiss, Jena, Germany). For quantification, biofilm volume (μm^3/μm^2) and average thickness (μm) were measured by means of Comstat2 in ImageJ.
A dynamic biofilm formation assay of compounds 41 and 42 was performed in a drip-flow reactor. Compound 1c served as a positive control, and DMSO served as a negative control. After 48 h drip-flow reactor operation, the biofilm was stained with Ruby and concanavalin A (ConA). Ruby (red) is a reagent for staining protein, and ConA (green) is for carbohydrate of biofilm. As shown in (A) of FIG. 8, the biofilm in the presence of DMSO formed with typical mushroom-like morphology. […] Biofilm volume and thickness with compound 41 were the lowest among the three groups (Table 1).

[3] = test system: P. aeruginosa PA14; experiment: Static biofilm formation assay; type: cell-based, Pseudomonas aeruginosa; details: 10 μM, 24 h, static
Protocol: Overnight culture of P. aeruginosa PA14 (OD595=1.0) was diluted (1:20) with the AB medium (300 mM NaCl, 50 mM MgSO4, 0.2% vitamin-free casamino acids, 10 mM potassium phosphate, 1 mM L-arginine, and 1% glucose, pH 7.5) (1:20) containing with either positive controls or synthesized compounds (0-100 μM). The dilutions were aliquoted into borosilicate bottles, and the bottles were incubated at 37° C. for 24 h without agitation. After that, OD595 of the cell suspension was measured on the VICTOR ×5 multimode plate reader. The biofilm cells attached to the bottle were washed two times with phosphate buffered saline (PBS; 137 mM NaCl, 2.7 mM KCl, 10 mM Na2HPO4, and 2 mM KH2PO4, pH 7.2) and stained with 0.1% crystal violet for […] Next, the stained biofilm cells were eluted with 100% ethyl alcohol, and OD540 was measured on the VICTOR ×5 multimode plate reader. The biofilm formation was quantified by dividing OD540 with OD595.

| Structure (SMILES) | LasR-antagonistic activity / LasR-binding affinity (RLU ratio), in words [1] | Inhibition of biofilm formation, in words [3] | also measured |
| --- | --- | --- | --- |
| CCCCCC(O)CC(=O)CCc1ccc(O)c(OC)c1 (racemic) [Compound 6, 5-Hydroxy-1-(4-hydroxy-3-methoxyphenyl)decan-3-one] | slightly more potent | – | – |
| CCCCCCCC(O)CC(=O)CCc1ccc(O)c(OC)c1 (racemic) [Compound 8, 5-Hydroxy-1-(4-hydroxy-3-methoxyphenyl)dodecan-3-one] | slightly more potent | – | – |
| CCCCCCCC(O)CC(=O)/C=C/c1ccc(O)c(OC)c1 (racemic) [Compound 21b, (E)-5-Hydroxy-1-(4-hydroxy-3-methoxyphenyl)dodec-1-en-3-one] | slightly stronger LasR affinity; also recorded: more potent than compound 1c | – | – |
| CCCCCCCC(O)CC(=O)CCc1ccc(O)c(OC)c1 [Compound 1c, (S)-8-gingerol, reference compound] | – | – | Biofilm thickness ([2]; 10 μM compound, CLSM, Comstat2): 17.0 ± 0.4 μm; Biofilm volume ([2]; 10 μM compound, CLSM, Comstat2): 17.0 ± 0.4 μm^3/μm^2; Biofilm formation in CLSM images, in words ([2]; 10 μM, compared with DMSO or compound 1c): relatively thin and sparse |
| CCCCCC(O)CC(=O)CCc1ccccc1 (centres unmarked) [Compound 15a, 5-Hydroxy-1-phenyldecan-3-one] | significantly decreased the LasR-antagonistic activity | – | – |
| CCCCCCCC(O)CC(=O)CCc1ccccc1 (centres unmarked) [Compound 15b, 5-Hydroxy-1-phenyldodecan-3-one] | relatively weaker than those of the other compounds | – | – |
| CCCCCC(O)CC(=O)CCc1ccc(F)c(OC)c1 (centres unmarked) [Compound 16a, 1-(4-Fluoro-3-methoxyphenyl)-5-hydroxydecan-3-one] | preserved the LasR-inhibitory activity | the most potent in the series | – |
| CCCCCCCC(O)CC(=O)CCc1ccc(F)c(OC)c1 (centres unmarked) [Compound 16b, 1-(4-Fluoro-3-methoxyphenyl)-5-hydroxydodecan-3-one] | – | the most potent in the series; also recorded: stronger inhibition of biofilm formation than the known anti-biofilm agent (S)-6-gingerol | – |
| CCCCCC(O)CC(=O)CCc1ccc(F)cc1 (centres unmarked) [Compound 17a, 1-(4-Fluorophenyl)-5-hydroxydecan-3-one] | preserved the LasR-inhibitory activity | the most potent in the series | – |
| CCCCCCCC(O)CC(=O)CCc1ccc(F)cc1 (centres unmarked) [Compound 17b, 1-(4-Fluorophenyl)-5-hydroxydodecan-3-one] | the most potent among the synthesized compounds | the most potent in the series; also recorded: stronger inhibition of biofilm formation than the known anti-biofilm agent (S)-6-gingerol | – |
| CCCCCC(O)CC(=O)CCc1ccc(O)cc1 (centres unmarked) [Compound 18a, 5-Hydroxy-1-(4-hydroxyphenyl)decan-3-one] | increased the LasR-antagonistic activity | the most potent in the series | – |
| CCCCCCCC(O)CC(=O)CCc1ccc(O)cc1 (centres unmarked) [Compound 18b, 5-Hydroxy-1-(4-hydroxyphenyl)dodecan-3-one] | the most potent among the synthesized compounds | the most potent in the series; also recorded: stronger inhibition of biofilm formation than the known anti-biofilm agent (S)-6-gingerol | – |
| CCCCCC(O)CC(=O)CCc1cccc(OC)c1 (centres unmarked) [Compound 20a, 5-Hydroxy-1-(3-methoxyphenyl)decan-3-one] | decreased the LasR-antagonistic activity | – | – |
| CCCCCCCC(O)CC(=O)CCc1cccc(OC)c1 (centres unmarked) [Compound 20b, 5-Hydroxy-1-(3-methoxyphenyl)dodecan-3-one] | relatively weaker than those of the other compounds | – | – |
| CCCCCC(O)CC(=O)/C=C/c1ccc(O)c(OC)c1 (centres unmarked) [Compound 21a, (E)-5-Hydroxy-1-(4-hydroxy-3-methoxyphenyl)dec-1-en-3-one] | slightly stronger LasR affinity | – | – |
| CCCCCCCC(=O)/C=C/c1ccc(O)c(OC)c1 [Compound 23a, (E)-1-(4-Hydroxy-3-methoxyphenyl)dec-1-en-3-one] | significantly weaker LasR-binding affinity | less inhibition of biofilm formation | – |
| CCCCCCCCCC(=O)/C=C/c1ccc(O)c(OC)c1 [Compound 23b, (E)-1-(4-Hydroxy-3-methoxyphenyl)dodec-1-en-3-one] | significantly weaker LasR-binding affinity | less inhibition of biofilm formation | – |
| CCCCCCCC(=O)CCc1ccc(O)c(OC)c1 [Compound 24a, 1-(4-Hydroxy-3-methoxyphenyl)decan-3-one] | significantly weaker LasR-binding affinity | less inhibition of biofilm formation | – |
| CCCCCCCCCC(=O)CCc1ccc(O)c(OC)c1 [Compound 24b, 1-(4-Hydroxy-3-methoxyphenyl)dodecan-3-one] | significantly weaker LasR-binding affinity | less inhibition of biofilm formation | – |
| CCCCCCC[C@@H](O)CC(=O)CCc1ccc(O)c(OC)c1 [Compound 29, (R)-5-Hydroxy-1-(4-hydroxy-3-methoxyphenyl)dodecan-3-one] | intermediate LasR-affinity between compound 8 and compound 42 | – | – |
| CCCCCCCC(O)CC(=O)CCc1ccc(O)c(OC)c1 [Compound 42S, (S)-8-gingerol] | almost the same as that of commercial (S)-8-gingerol | – | – |
